Where two headings read alike, the source gives them in different places.
Legend:
SARS-CoV-2 [1] = assay: Virus titer reduction assay; type: cell-based; conditions: for SI: SARS-CoV-2 EC50 and Vero cells CC50; for EC50: Severe acute respiratory syndrome coronavirus 2
[2] = Singlet oxygen generation quantum yield (SOSG fluorescence); type: physicochemical; conditions: in methanol, illumination 430–450 nm, 5.5 mW/cm^2, reference PS C1T11
Protocol: The ROS generation rate was estimated using the spectrofluorimetric method, based on the fluorescense changes of Singlet Oxigen Sensor Green (SOSG®, Lumiprobe, Cockeysville, MD, USA) in methanol solution. Oxidation of SOSG by singlet oxygen results in peroxide formation enhancing SOSG fluorescence.
Spectrophotometric measurements were performed in a Qpod 2e thermostated cuvette holder (Quantum Northwest, Liberty Lake, WA, USA) at 25 °C and with magnetic stirring (500 rpm). Absorption spectra were recorded using a MayaPro spectrophotometer (Ocean Optics, Orlando, FL, USA) and a stabilized white light source with a SLS201L tungsten lamp (Thorlabs, Newton, NJ, USA). The fluorescence of SOSG was measured with a Flame CCD spectrometer (Ocean Optics, Orlando, FL, USA) in StripChart mode (530 nm), excitation of the SOSG fluorescence was carried out with a PLS-510 LED laser (InTop, St. Petersburg, Russia) in CW mode at the wavelength of 510 nm.
To study photosensitized ^1O2 generation, we used a white MCWHLP1 LED (Thorlabs, USA) with filters to limit the radiation to the 430–450 nm range (5.5 mW/cm^2). Illumination was uniform over the entire volume of the cuvette, to prevent artifacts associated with the diffusion of non-reacted components from entering into the illuminated volume of the cuvette. Illumination was performed in pulsed mode, with 1 s of illumination followed by 5 s of dark adaptation, during which the fluorescence spectrum of the photosensitizer-SOSG solution was recorded.
Singlet oxygen generation quantum yield for compounds 3a–3f in methanol was calculated according to Equation (1):(1) φΔ=φΔ0∗r/r^0(1−10^−A^0)/(1−10^−A), where r is the rate of SOSG fluorescence increase in solution of the photosensitizer (PS), A is the PS absorbance in the region of illumination, and index 0 represents reference PS (we used perylene compound C1T11 [65] with φΔ0=0.59 in methanol).

[3] = Cytotoxicity assay (Cell Counting Kit-8); type: cell-based; conditions: African green monkey, Vero cells, confluent monolayer; 48 h at 37 °C in the dark; compounds 0–10 µM
Protocol: Vero cells were cultured for 24 h in 96-well plates to form a confluent monolayer, and then were treated with the tested compounds at concentrations of 0–10 µM. After 48 h of cultivation in the dark at 37 °C under 5% CO2, the cell culture medium was aspirated. The potential cytotoxicity of the tested derivatives was determined based on cell viability using Cell Counting Kit-8 (Dojindo Molecular Technologies, Munich, Germany) according to the manufacturer’s instructions (Figure 5A).

[4] = set-up: method as in PMID 37339718; conditions: in methanol; cited from earlier work
[5] = Light-induced cytotoxicity (photocytotoxicity); type: cell-based; conditions: cat (Felis catus), CRFK cells, confluent monolayer; blue light 465–480 nm, 30 mW/cm^2, 10 min; then 48 h incubation; read-out: Cell viability of irradiated CRFK cells
SARS-CoV-2 [6] = assay: Virucidal (virus-inactivating) activity, plaque assay; type: cell-based; conditions: 10 µM; 120 min pre-incubation in the dark; starting titers 10^4, 10^6 and 10^7 PFU/mL
FIPV [7] = assay: Photodynamic inactivation of FIPV virions; type: cell-based, feline infectious peritonitis virus
Protocol: Considering that perylenylethynylphenols are potent ^1O2 photogenerators, we investigated their coronavirus inactivation activity after the irradiation of compound-pretreated FIPV with blue light (465–480 nm, with an approximate power density of 30 mW/cm^2; note: the 465–480 nm wavelength is close to the excitation maxima of perylenylethynylphenols). In this experiment, (i) compound 3a and the virus were mixed in daylight and irradiated with blue light for 10 min (Figure 7D, top panel), or (ii) the compound and virus were mixed in daylight and incubated in the dark for 10 min (Figure 7D, medium panel). Then, both samples (irradiated and non-irradiated) were incubated for 1 h at 37 °C in the dark, and the viability of FIPV was determined by a plaque assay. […] We speculate that the observed enhancement of antiviral (virus inactivation) activity of 3a is due to increased ^1O2 photogeneration during sample irradiation.
To completely eliminate the influence of daylight on the anti-FIPV activity of perylenylethynylphenols, we performed a parallel experiment in a dark room. In this experiment, all manipulations, including sample preparation and plaque assays, were performed under red light (624 ± 20 nm) (Figure 7D, bottom panel).
Virus in DMEM (titer of 10^6 PFU/mL) was mixed with 3a (0–10 µM) in a microtiter plate in daylight and irradiated for 10 min at RT with LEDs (465–480 nm) at an approximate power density of 30 mW/cm^2 (Figure 7D, top panel). As a negative control, the virus was mixed with 3a (0–10 µM) in daylight and incubated with the compound for 10 min in the dark at RT (Figure 7D, middle panel). Subsequently, both irradiated and non-irradiated virus samples were incubated in the dark at 37 °C for an additional 60 min. Viral titers were determined by plaque assays (also in daylight). […] The virus sample was mixed with 3a (0–10 µM), incubated at 37 °C for 60 min, and the viability of the virus was assessed by plaque assays (Figure 7D, bottom panel). […]

[8] = Cytotoxicity to CRFK cells under normal lighting; type: cell-based; conditions: cat (Felis catus), CRFK cells (kidney cortex), confluent monolayer
Protocol: Furthermore, we investigated the mechanism of antiviral activity of perylenylethynylphenols using FIPV, another member of the Coronaviridae family, which is an important veterinary pathogen.
To determine the light-induced cytotoxicity of the compounds, CRFK cells were cultured in 96-well plates for 24 h to form a confluent monolayer and then treated with the tested compounds at concentrations ranging from 0 to 10 µM in daylight. Subsequently, cells treated with the compounds were irradiated with LEDs (465–480 nm, 30 mW/cm^2) for 10 min at RT (Figure 7A, top panel). As a negative control, CRFK cells were treated with the compounds in daylight and then incubated in the dark at RT for 10 min (Figure 7A, bottom panel). Subsequently, both irradiated and non-irradiated cell monolayers were incubated for 48 h in the dark at 37 °C. After incubation, the potential photocytotoxicity of the compounds was determined using Cell Counting Kit-8 (Dojindo Molecular Technologies, Munich, Germany) according to the manufacturer’s instructions.

PS cells = assay: Confocal microscopy of penetration into cellular membranes; type: cell-based, porcine; conditions: 10 µM
Protocol: Confocal microscopy was used to study the penetration of compound 3a into cellular membranes. PS cells were treated with 3a (10 µM) in a µ-Slide 8 Well (IbidiGmbH, Gräfelfing, Germany) in the dark for 60 min at 37 °C. The samples were analyzed for fluorescent signal distribution and intensity using a Leica SP8 confocal microscope (Leica, Wetzlar, Germany) as described previously.

[9] = Interaction with liposomes (steady-state fluorescence); type: physicochemical; conditions: 10 µM in PBS; 520 nm; after the complete incubation period (3500 s)
Protocol: The affinity of 3a to lipid membranes was further confirmed using a liposomal (protein-free) membrane model system (Figure 6D,E). […] The kinetics of liposome penetration of 3a were measured as the steady-state fluorescence response at 520 nm, which reached maximal intensity of about 4 × 10^5 CPE after the complete incubation period (3500 s) (Figure 6E).
The samples’ steady-state fluorescence characteristics were measured in L-format using a Chronos DFD Fluorescence spectrometer (ISS, Baltimore, MD, USA) equipped with a 300 W Cermax xenon arc lamp (ISS, Baltimore, MD, USA), a concave holographic grating monochromator, and a PMT detector. The required amount of each sample was diluted in DMSO and measured in a 1-cm quartz cuvette, at a constant temperature of 25 °C. The resulting data were evaluated using Vinci software version 2 (ISS, Baltimore, MD, USA) and correlated to the utilized optical configuration.
The kinetics of the incorporation of compounds into liposome membrane models were determined using steady-state fluorescence spectroscopy at a constant excitation and emission wavelength, according to the corresponding sample excitation and emission maxima. We added 50 μL of LNP suspension to 10 µM of the analyte in PBS and monitored the increase in fluorescence intensity over the time range […].

FIPV [10] = assay: Anti-FIPV activity in CRFK cells (plaque assay); type: cell-based, feline infectious peritonitis virus; conditions: Alphacoronavirus 1, normal lighting (preparation in daylight, cultivation in the dark)
[11] = SARS-CoV-2 in Vero cells, normalized log-transformed response, read-out: App. EC50, calculated from log-transformed viral titers (converted)
[12] = Vero cells, MOI 0.1, 48 h p.i., normal lighting, 50% reduction in viral titer, read-out: SARS-CoV-2 EC50

Oc1ccc(C#Cc2ccc3c4cccc5cccc(c6cccc2c63)c54)cc1Br [Compound 3c, 4-(Perylen-3-ylethynyl)-2-bromophenol]
SI (SARS-CoV-2 [1]): >44 | EC50 (SARS-CoV-2 [1]; [11]): 1100 nM | EC50 (SARS-CoV-2 [1]; [12]): 227 nM | ϕΔ(1O2), singlet oxygen generation quantum yield [2]: 0.282 | CC50 at 48 h [3]: > 10000 nM

Oc1ccc(C#Cc2cc3cccc4c5cccc6cccc(c(c2)c34)c65)cc1 [Compound 3d, 4-(Perylen-2-ylethynyl)phenol]
SI (SARS-CoV-2 [1]): >16 | EC50 (SARS-CoV-2 [1]; [11]): 2220 nM | EC50 (SARS-CoV-2 [1]; [12]): 614 nM | ϕΔ(1O2), singlet oxygen generation quantum yield [2]: 0.297 | CC50 at 48 h [3]: > 10000 nM

Oc1ccc(C#Cc2cc3cccc4c5cccc6cccc(c(c2)c34)c65)cc1Br [Compound 3f, 4-(Perylen-2-ylethynyl)-2-bromophenol]
SI (SARS-CoV-2 [1]): >19 | EC50 (SARS-CoV-2 [1]; [11]): 2680 nM | EC50 (SARS-CoV-2 [1]; [12]): 529 nM | ϕΔ(1O2), singlet oxygen generation quantum yield [2]: 0.332 | CC50 at 48 h [3]: > 10000 nM

O=C(O)c1ccc(-c2ccc3c4cccc5cccc(c6cccc2c63)c54)s1 [Compound C1T11]
φΔ0, singlet oxygen generation quantum yield of the reference PS [4]: 0.59

Oc1cccc(C#Cc2cc3cccc4c5cccc6cccc(c(c2)c34)c65)c1 [Compound 3e, 3-(Perylen-2-ylethynyl)phenol]
SI (SARS-CoV-2 [1]): >29 | EC50 (SARS-CoV-2 [1]; [11]): 1580 nM | EC50 (SARS-CoV-2 [1]; [12]): 347 nM | viability at 48 h [5]: > 100% | ϕΔ(1O2), singlet oxygen generation quantum yield [2]: 0.460 | CC50 at 48 h [3]: > 10000 nM

Oc1ccc(C#Cc2ccc3c4cccc5cccc(c6cccc2c63)c54)cc1 [Compound 3a, 4-(Perylen-3-ylethynyl)phenol]
Decrease in SARS-CoV-2 viral titer compared with control (SARS-CoV-2 [6]): more than two orders of magnitude | anti-FIPV activity under red light (FIPV [7]; dark room, all manipulations under red light (624 ± 20 nm), up to 10 µM): completely disappeared | anti-FIPV (virus inactivation) activity after blue-light irradiation (FIPV [7]; mixed in daylight, blue light 465–480 nm, 30 mW/cm^2, 10 min, versus non-irradiated sample): significant increase in anti-FIPV activity | FIPV-inactivation activity in the non-irradiated sample (FIPV [7]; mixed in daylight, incubated in the dark 10 min, then 1 h at 37 °C): some FIPV-inactivation activity | CC50 at 48 h [8]: > 10000 nM | SI (SARS-CoV-2 [1]): >83 | EC50 (SARS-CoV-2 [1]; [11]): 1790 nM | EC50 (SARS-CoV-2 [1]; [12]): 120 nM | Cytotoxicity or morphological abnormalities in PS cells (PS cells): no signs of cytotoxicity or morphological abnormalities | Maximal steady-state fluorescence intensity on liposome penetration [9]: about 4 × 10^5 CPE | EC50 (FIPV [10]): 196 nM | ϕΔ(1O2), singlet oxygen generation quantum yield [2]: 0.422 | CC50 at 48 h [3]: > 10000 nM

Oc1cccc(C#Cc2ccc3c4cccc5cccc(c6cccc2c63)c54)c1 [Compound 3b, 3-(Perylen-3-ylethynyl)phenol]
SI (SARS-CoV-2 [1]): >196 | EC50 (SARS-CoV-2 [1]; [11]): 506 nM | EC50 (SARS-CoV-2 [1]; [12]): 51.1 nM | viability at 48 h [5]: > 100% | ϕΔ(1O2), singlet oxygen generation quantum yield [2]: 0.451 | CC50 at 48 h [3]: > 10000 nM

From article PMC10488391, “Membrane-Targeting Perylenylethynylphenols Inactivate Medically Important Coronaviruses via the Singlet Oxygen Photogeneration Mechanism” (Molecules, 2023)
